The values that follow come from patent publication US20230051589A1, “COMPOUNDS AND COMPOSITIONS FOR TREATING CONDITIONS ASSOCIATED WITH NLRP ACTIVITY” (Novartis AG, priority 2018, published 2023).

pIC50: −log10 of the molar value. Where two headings read alike, the source gives them in different places. A value given as a limit tells only on which side of the number the result lay.

This experiment has as its system IL-1β production in PMA-differentiated THP-1 cells. Kind of experiment: IL-1β production in PMA-differentiated THP-1 cells stimulated with gramicidin (hTHP-1 assay, 2% fetal bovine serum; Procedures 1-3). The format is cell-based, human. As to conditions: read-out: IC50. The gist of the method:
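IL-1β released into supernatants was read by HTRF after 2 h gramicidin (5 μM) challenge. Before challenge, compounds (3-fold dilutions, top 100 μM, 0.37% DMSO) were given 1 h on THP-1 cells differentiated with PMA (20 ng/ml, 16-18 h) and held in 2% FBS medium.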

Where [1] appears, read: Homo sapiens, THP-1, hTHP-1 assay containing 2% fetal bovine serum, Table B2, class symbols.
Setting [2] is: hTHP-1 assay containing 2% fetal bovine serum, Table B2, class symbols.
Where [3] appears, read: Homo sapiens, THP-1, hTHP-1 assay containing 2% fetal bovine serum, Table B2, given as bound.

Take `NS(=O)(=NC(=O)Nc1c2c(cc3c1CCC3)CCC2)c1ccc(OC(F)F)cc1` (centres unmarked) [Example 493, 4-(Difluoromethoxy)-N′-((1,2,3,5,6,7-hexahydro-s-indacen-4-yl)carbamoyl) benzenesulfonimidamide]: the pIC50 under setting [1] is 4.52 to 5.30.

On to `CC(C)c1cc2c(cc1NC(=O)N=S(N)(=O)c1cnc(C(C)(C)O)s1)CCC2` (centres unmarked) [Example 494, 2-(2-Hydroxypropan-2-yl)-N′-((6-isopropyl-2,3-dihydro-1H-inden-5-yl)earbamoyl)thiazole-5-sulfonimidamide], for which the negative-log IC50 (pIC50) under setting [1] is 6.00 to 6.70. In the case of `CNCC1(c2ccc(S(N)(=O)=NC(=O)Nc3c4c(cc5c3CCC5)CCC4)c(F)c2)CC1` (centres unmarked) [Example 495, 2-Fluoro-N′-((1,2,3,5,6,7-hexahydro-s-indacen-4-yl)carbamoyl)-4-(1-((methylamino)methyl)cyclopropyl)benzenesulfonimidamide], the pIC50 under setting [1] was 5.30 to 6.00. Consider `CN(C)Cc1cnc(S(N)(=O)=NC(=O)Nc2c3c(cc4c2CCC4)CCC3)c(F)c1` (centres unmarked) [Example 497, 5-((Dimethylamino)methyl)-3-fluoro-N′-((1,2,3,5,6,7-hexahydro-s-indacen-4-yl)carbamoyl)pyridine-2-sulfonimidamide], for which the pIC50 under setting [1] was 5.30 to 6.00. As to `CC(C)(O)c1csc(S(N)(=O)=NC(=O)Nc2c3c(c(C#N)c4c2CCC4)CCC3)n1` (centres unmarked) [Example 499, N′-((8-Cyano-1,2,3,5,6,7-hexahydro-s-indacen-4-yl)carbamoyl)-4-(2-hydroxypropan-2-yl)thiazole-2-sulfonimidamide], the negative logarithm of the IC50 (pIC50) under setting [1] was 6.70 to 7.40.

Regarding `NS(=O)(=NC(=O)Nc1c2c(cc3c1CCC3)CCC2)c1ccc(C2CCNC2)cc1F` (centres unmarked) [Example 500, 2-Fluoro-N′-((1,2,3,5,6,7-hexahydro-s-indacen-4-yl)carbamoyl)-4-(pyrrolidin-3-yl)benzenesulfonimidamide], under setting [2], the pIC50 is 4.52 to 5.30. Consider `NS(=O)(=NC(=O)Nc1c2c(cc3c1CCC3)CCC2)c1cccc(CN2CCOCC2)c1` (centres unmarked) [Example 503, N′-((1,2,3,5,6,7-hexahydro-s-indacen-4-yl)carbamoyl)-3-(morpholinomethyl)benzenesulfonimidamide], for which the negative logarithm of the IC50 (pIC50) under setting [1] was 5.30 to 6.00.

For `COCCN(C)Cc1cccc(S(N)(=O)=NC(=O)Nc2c3c(cc4c2CCC4)CCC3)c1` (centres unmarked) [Example 504], under setting [1], the pIC50 is 4.52 to 5.30.

Regarding `CN1CCN(Cc2cccc(S(N)(=O)=NC(=O)Nc3c4c(cc5c3CCC5)CCC4)c2)CC1` (centres unmarked) [Example 505, N′-((1,2,3,5,6,7-hexahydro-s-indacen-4-yl)carbamoyl)-3-((4-methylpiperazin-1-yl)methyl) benzenesulfonimidamide], under setting [1], the pIC50 is 4.52 to 5.30. With `CN(C)CCN(C)Cc1cccc(S(N)(=O)=NC(=O)Nc2c3c(cc4c2CCC4)CCC3)c1` (centres unmarked) [Example 506, 3-(((2-(Dimethylamino)ethyl) (methyl)amino)methyl)-N′-((1,2,3,5,6,7-hexahydro-s-indacen-4-yl)carbamoyl)benzenesulfonimidamide], under setting [1], the negative-log IC50 (pIC50) was 4.52 to 5.30. Still for that read-out and setting: the figure for `CN(Cc1cccc(S(N)(=O)=NC(=O)Nc2c3c(cc4c2CCC4)CCC3)c1)CC1CC1` (centres unmarked) [Example 507, 3-(((Cyclopropylmethyl) (methyl)amino)methyl)-N′-((1,2,3,5,6,7-hexahydro-s-indacen-4-yl)carbamoyl)benzenesulfonimidamide] is 4.52 to 5.30; for `CNCc1cccc(S(N)(=O)=NC(=O)Nc2c3c(cc4c2CCC4)CCC3)c1` (centres unmarked) [Example 508, N′-((1,2,3,5,6,7-hexahydro-s-indacen-4-yl)carbamoyl)-3-((methylamino)methyl) benzenesulfonimidamide] it is 4.52 to 5.30. Turning to `CC(C)(O)c1cnc([S@@](N)(=O)=NC(=O)Nc2c3c(cc4c2CCC4O)CCC3)s1` (stereo partly drawn) [Example 509, (S)-N′-((1-hydroxy-1,2,3,5,6,7-hexahydro-s-indacen-4-yl)carbamoyl)-5-(2-hydroxypropan-2-yl)thiazole-2-sulfonimidamide], the pIC50 under setting [3] is below 4.52. With `CC(C)(O)c1cnc([S@](N)(=O)=NC(=O)Nc2c3c(cc4c2C(O)CC4)CCC3)s1` (stereo partly drawn) [Example 510, (R)-N′-((3-hydroxy-1,2,3,5,6,7-hexahydro-s-indacen-4-yl)carbamoyl)-5-(2-hydroxypropan-2-yl)thiazole-2-sulfonimidamide], the negative-log IC50 (pIC50) under setting [1] was 6.00 to 6.70.

As to `CC(C)(O)c1cnc([S@@](N)(=O)=NC(=O)Nc2c3c(cc4c2C(O)CC4)CCC3)s1` (stereo partly drawn) [Example 511, (S)-N′-((3-hydroxy-1,2,3,5,6,7-hexahydro-s-indacen-4-yl)carbamoyl)-5-(2-hydroxypropan-2-yl)thiazole-2-sulfonimidamide], under setting [3], the pIC50 was below 4.52. Take `CC(C)(O)c1cnc([S@](N)(=O)=NC(=O)Nc2c3c(cc4c2CCC4O)CCC3)s1` (stereo partly drawn) [Example 512, (R)-N′-((1-hydroxy-1,2,3,5,6,7-hexahydro-s-indacen-4-yl)carbamoyl)-5-(2-hydroxypropan-2-yl)thiazole-2-sulfonimidamide]: the pIC50 under setting [1] is 5.30 to 6.00. For the compound `CCCc1c2c(c(NC(=O)N=S(N)(=O)c3cc(C(C)(C)O)n(-c4ccccc4)n3)c3c1CCC3)CCC2` (centres unmarked) [Example 513, 5-(2-hydroxypropan-2-yl)-1-phenyl-N′-((8-propyl-1,2,3,5,6,7-hexahydro-s-indacen-4-yl)carbamoyl)-1H-pyrazole-3-sulfonimidamide], the pIC50 under setting [1] is 4.52 to 5.30. Consider `CC(C)(O)c1ncc([S@](N)(=O)=NC(=O)Nc2cc(CCCl)cc3c2CCC3)s1` [Example 514, (R)-N′-((6-(2-chloroethyl)-2,3-dihydro-1H-inden-4-yl)carbamoyl)-2-(2-hydroxypropan-2-yl)thiazole-5-sulfonimidamide], for which the pIC50 under setting [1] was 5.30 to 6.00.

Take `CC(O)(CO)c1cc(F)c(S(N)(=O)=NC(=O)Nc2c3c(c(C#N)c4c2CCC4)CCC3)s1` [Example 631, (R,S) and (S,S)-N′-((8-cyano-1,2,3,5,6,7-hexahydro-s-indacen-4-yl)carbamoyl)-5-(1,2-dihydroxypropan-2-yl)-3-fluorothiophene-2-sulfonimidamide]: the pIC50 under setting [2] was 5.30 to 6.00. On to `CNCc1cc(F)c(S(N)(=O)=NC(=O)Nc2c3c(cc4c2CC4)CCC3)s1` (centres unmarked) [Example 669, 3-Fluoro-5-((methylamino)methyl)-N′-((2,4,5,6-tetrahydro-1H-cyclobuta[f]inden-3-yl)carbamoyl)thiophene-2-sulfonimidamide], for which, under setting [1], the pIC50 was 6.70 to 7.40. `C[C@@](O)(CN)c1ncc(S(N)(=O)=NC(=O)Nc2c3c(cc4c2CCC4)CCC3)s1` (stereo partly drawn) [Example 673, 2-((R)-1-amino-2-hydroxypropan-2-yl)-N′-((1,2,3,5,6,7-hexahydro-s-indacen-4-yl)carbamoyl)thiazole-5-sulfonimidamide]: the negative-log IC50 (pIC50) under setting [1] is 6.70 to 7.40. For the compound `C[C@]1(c2ncc(S(N)(=O)=NC(=O)Nc3c4c(cc5c3CCC5)CCC4)s2)CNC(=O)O1` (stereo partly drawn) [Example 674, N′-((1,2,3,5,6,7-hexahydro-s-indacen-4-yl)carbamoyl)-2-((R)-5-methyl-2-oxooxazolidin-5-yl)thiazole-5-sulfonimidamide], the pIC50 under setting [1] was 6.70 to 7.40. `CC(=O)NC[C@@](C)(O)c1ncc(S(N)(=O)=NC(=O)Nc2c3c(cc4c2CCC4)CCC3)s1` (stereo partly drawn) [Example 675, N-((2R)-2-(5-(N′-((1,2,3,5,6,7-hexahydro-s-indacen-4-yl)carbamoyl)sulfamidimidoyl)thiazol-2-yl)-2-hydroxypropyl)acetamide]: under setting [1], the negative-log IC50 (pIC50) is 6.70 to 7.40.
